PubChem BioAssay AID256 (DTP/NCI, 2004)
Several values for one entry are separate records, joined by “and”; a condition that tells them apart may be missing. Identical values can stand only once. Toxic doses and inconclusive results are not listed.

Tested on: CD2F1 mice, L1210 leukemia ip, survival T/C
Test: NCI In Vivo Anticancer Drug Screen. Data for tumor model L1210 Leukemia (intraperitoneal) in CD2F1 (CDF1) mice
Conditions: higher = longer survival
In short: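 Antitumor effect is scored in animals hosting a serially transplanted tumor. Values compare compound-dosed animals against vehicle-only controls as a simple quotient.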

[1] = endpoint: mean survival time, dose: 100.0 mg/kg/injection, schedule: Q01DX009 (ip), vehicle: saline with Tween-80
[2] = endpoint: mean survival time, dose: 200.0 mg/kg/injection, schedule: Q01DX009 (ip), vehicle: saline with Tween-80

COc1cc(C2c3cc4c(cc3[C@@H](OC3OC5CO[C@@H](C)OC5C(O)C3O)[C@H]3COC(=O)C23)OCO4)cc(OC)c1OC (stereo not given in full)
T/C (endpoint: median survival time, dose: 50.0 mg/kg/injection, schedule: Q01DX005 (ip), vehicle: saline): 164 % of control
T/C (endpoint: median survival time, dose: 60.0 mg/kg/injection, schedule: Q01DX009 (ip), vehicle: saline): 161 % of control
T/C (endpoint: median survival time, dose: 100.0 mg/kg/injection, schedule: Q01DX005 (ip), vehicle: saline): 211 % of control
T/C (endpoint: median survival time, dose: 100.0 mg/kg/injection, schedule: Q01DX009 (ip), vehicle: saline): 277 % of control
T/C (endpoint: median survival time, dose: 166.67 mg/kg/injection, schedule: Q01DX009 (ip), vehicle: saline): 297 % of control
T/C (endpoint: median survival time, dose: 200.0 mg/kg/injection, schedule: Q01DX005 (ip), vehicle: saline): 211 % of control
T/C (endpoint: median survival time, dose: 277.78 mg/kg/injection, schedule: Q01DX009 (ip), vehicle: saline): 86 % of control

CC(C)c1cc(O)c(C(C)C)cc1O
T/C (endpoint: mean survival time, dose: 75.0 mg/kg/injection, schedule: Q01DX001 (ip), vehicle: saline): 104 % of control
T/C (endpoint: mean survival time, dose: 150.0 mg/kg/injection, schedule: Q01DX001 (ip), vehicle: saline): 111 % of control

[C-]#[O+].[C-]#[O+].[C-]#[O+].[C-]#[O+].[C-]#[O+].[C-]#[O+].[W]
T/C (endpoint: mean survival time, dose: 100.0 mg/kg/injection, schedule: Q04DX003 (ip), vehicle: saline with Tween-80): 95 % of control
T/C (endpoint: mean survival time, dose: 200.0 mg/kg/injection, schedule: Q04DX003 (ip), vehicle: saline with Tween-80): 97 % of control
T/C (endpoint: mean survival time, dose: 400.0 mg/kg/injection, schedule: Q04DX003 (ip), vehicle: saline with Tween-80): 101 % of control

CC1=C(C)C(=O)O[C@@H]([C@](C)(O)[C@]2(O)CC[C@@]3(O)[C@@H]4C[C@H]5O[C@]56[C@@H](O)C=CC(=O)[C@]6(C)[C@H]4CC[C@]23C)C1
T/C (endpoint: mean survival time, dose: 1.0 mg/kg/injection, schedule: Q01DX009 (ip), vehicle: saline): 113 % of control
T/C (endpoint: mean survival time, dose: 2.0 mg/kg/injection, schedule: Q01DX009 (ip), vehicle: saline): 104 % of control
T/C (endpoint: mean survival time, dose: 2.0 mg/kg/injection, schedule: Q01DX009 (ip), vehicle: suspension in saline): 105 % of control
T/C (endpoint: mean survival time, dose: 4.0 mg/kg/injection, schedule: Q01DX009 (ip), vehicle: saline): 106 % of control
T/C (endpoint: mean survival time, dose: 4.0 mg/kg/injection, schedule: Q01DX009 (ip), vehicle: suspension in saline): 108 % of control
T/C (endpoint: mean survival time, dose: 8.0 mg/kg/injection, schedule: Q01DX009 (ip), vehicle: saline): 111 % of control
T/C (endpoint: mean survival time, dose: 8.0 mg/kg/injection, schedule: Q01DX009 (ip), vehicle: suspension in saline): 114 % of control
T/C (endpoint: mean survival time, dose: 16.0 mg/kg/injection, schedule: Q01DX009 (ip), vehicle: saline): 103 % of control
T/C (endpoint: mean survival time, dose: 16.0 mg/kg/injection, schedule: Q01DX009 (ip), vehicle: suspension in saline): 108 % of control
T/C (endpoint: mean survival time, dose: 32.0 mg/kg/injection, schedule: Q01DX009 (ip), vehicle: saline): 87 % of control
T/C (endpoint: mean survival time, dose: 32.0 mg/kg/injection, schedule: Q01DX009 (ip), vehicle: suspension in saline): 96 % of control

O=C(c1ccc(-c2ccccc2)cc1)C1C(c2ccccc2)N1C1CCCCC1 (stereo not given)
T/C (endpoint: mean survival time, dose: 12.5 mg/kg/injection, schedule: Q01DX009 (ip), vehicle: other): 102 % of control and 96 % of control
T/C (endpoint: mean survival time, dose: 25.0 mg/kg/injection, schedule: Q01DX001 (ip), vehicle: water): 96 % of control and 98 % of control
T/C (endpoint: mean survival time, dose: 25.0 mg/kg/injection, schedule: Q01DX009 (ip), vehicle: other): 96 % of control and 97 % of control
T/C (endpoint: mean survival time, dose: 50.0 mg/kg/injection, schedule: Q01DX001 (ip), vehicle: water): 88 % of control and 90 % of control
T/C (endpoint: mean survival time, dose: 50.0 mg/kg/injection, schedule: Q01DX009 (ip), vehicle: other): 102 % of control and 88 % of control
T/C (endpoint: mean survival time, dose: 100.0 mg/kg/injection, schedule: Q01DX001 (ip), vehicle: water): 95 % of control and 101 % of control
T/C (endpoint: mean survival time, dose: 100.0 mg/kg/injection, schedule: Q01DX009 (ip), vehicle: other): 86 % of control and 97 % of control
T/C (endpoint: mean survival time, dose: 200.0 mg/kg/injection, schedule: Q01DX001 (ip), vehicle: water): 90 % of control and 92 % of control
T/C (endpoint: mean survival time, dose: 200.0 mg/kg/injection, schedule: Q01DX009 (ip), vehicle: other): 94 % of control
T/C (endpoint: mean survival time, dose: 400.0 mg/kg/injection, schedule: Q01DX001 (ip), vehicle: water): 92 % of control

COc1ccc(C(=O)c2ccccc2NC(C)=O)cc1
T/C [1]: 98 % of control
T/C [2]: 101 % of control
T/C (endpoint: mean survival time, dose: 400.0 mg/kg/injection, schedule: Q01DX009 (ip), vehicle: saline with Tween-80): 98 % of control

COc1ccc([N+](=O)[O-])cc1NC(=O)Nc1ccccc1C
T/C (endpoint: mean survival time, dose: 100.0 mg/kg/injection, schedule: Q04DX002 (ip), vehicle: saline with Tween-80): 92 % of control
T/C (endpoint: mean survival time, dose: 200.0 mg/kg/injection, schedule: Q04DX002 (ip), vehicle: saline with Tween-80): 88 % of control
T/C (endpoint: mean survival time, dose: 400.0 mg/kg/injection, schedule: Q04DX002 (ip), vehicle: saline with Tween-80): 95 % of control

[CH3][Sb]([CH3])([CH3])([O]C(=O)CF)[O]C(=O)CF
T/C (endpoint: mean survival time, dose: 1.25 mg/kg/injection, schedule: Q01DX009 (ip), vehicle: saline): 102 % of control
T/C (endpoint: mean survival time, dose: 2.5 mg/kg/injection, schedule: Q01DX009 (ip), vehicle: saline): 100 % of control
T/C (endpoint: mean survival time, dose: 5.0 mg/kg/injection, schedule: Q01DX009 (ip), vehicle: saline): 106 % of control

CCCC(C)(C)c1ccccc1
T/C (endpoint: mean survival time, dose: 50.0 mg/kg/injection, schedule: Q01DX009 (ip), vehicle: saline with Tween-80): 104 % of control
T/C [1]: 96 % of control
T/C [2]: 89 % of control
